Tests used:
[1] = test system: mononuclear cells isolated from peripheral blood; assay: LPS-induced IL-1β, IL-6 and GM-CSF release in mononuclear cells isolated from healthy and asthmatic patients; type: cell-based, human; settings: single agent
Protocol: Mononuclear cells were isolated from peripheral blood of healthy volunteers, and asthmatic patients. Briefly, PBMC were isolated from peripheral venous blood by standard laboratory procedures. Peripheral venous blood was mixed with dextran 500 at 3% (in 0.9% saline) in a proportion of 2:1. This mixture was incubated at room temperature for 30 min until sedimentation of erythrocytes. The upper phase was carefully collected and layered on Ficoll-Paque Histopaque 1077 density gradient in a proportion of 3:1. (PBMC) layer was isolated and quantified.
For the single agent study, isolated mononuclear cells were incubated with Compound A, or vehicle for 30 minutes before incubation with or without LPS for 6 hours in standard cell culture conditions (37° C. and 5% CO2). For the combination experiments, the same procedure was followed except that cells were incubated with Compound A (1 μM) in combination with fluticasone (0.1 nM). Supernatants were collected to measure IL-1β, IL-6, and GM-CSF. Data was analysed using Graphpad Prism.

[2] = test system: U937 cells; assay: H2O2 induced corticosteroid insensitivity in U937 cells (TNF-α induced IL-8, ELISA); type: cell-based; settings: H2O2 treated U937 macrophages; addition of 1 μM Compound A; FIG. 1B
Protocol: U937 cells were maintained in RPMI-1640 with 15 mM glutamine. 6×10^6 cells were taken in a T-25 flask with 12 ml of fresh medium and treated with 1 μM of Compound A and incubated at 37° C. and 5% CO2 for 30 min.
H2O2 was added at a final concentration of 200 μM to the above cells and incubated for 2 h.
Cells were pelleted and resuspended in serum free media and seeded on to a 96-well plate at 0.15×10^6 cells per well in 100 μl.
50 μl of 3× dexamethasone at desired concentrations was added and incubated for 45 min
50 μl of 4× concentration of TNF-α was added such that the final concentration was 10 ng/ml, to induce IL-8 and incubated for 18 h.
Supernatant was collected and IL-8 was estimated by ELISA.
IL-8 strips were plated with fresh or thawed supernatants and incubated at room temperature for 2 h or overnight at 4° C.
Contents were discarded and strips were washed with 200 μl of wash buffer per well for 15 s for a total of 5 times.
Strips were blotted dry and 100 μl per well of 1× detection antibody was added and incubated at room temperature for 1 h.
Strips were blotted dry and 100 μl per well of 1× Avidin-HRP antibody was added and incubated at room temperature for 30 min.
Contents were discarded and the strips were washed with 200 μl per well of wash buffer for 15 s for a total of 5 times. […]
Absorbance was read on a plate reader at A450 nm and A570 nm.

[3] = asthmatic patients, LPS stimulus 6 hours

## Cc1ccccc1C(=O)Nc1ccc(-n2nc(C(F)(F)F)cc2C2CC2)nc1 [Compound A, N-{6-[5-cyclopropyl-3-(trifluoromethyl)-1H-pyrazol-1-yl]pyridin-3-yl}-2-methyl benzamide]
[1]; [3]
  percentage maximum effect (% Emax), GM-CSF release: 80±16.4%
  percentage maximum effect (% Emax), IL1β release: 68.9±23.7%
  percentage maximum effect (% Emax), IL6 release: 52.5±30.3%
[1]; healthy donors, LPS stimulus
  % Emax for IL1β compared with asthmatic cells: higher % Emax
[2]
  reduction in IC50 of dexamethasone for IL-8 release: 3 fold

Reference: patent US20220040162A1, “COMPOSITIONS COMPRISING A CRAC INHIBITOR AND A CORTICOSTEROID AND METHODS OF USE THEREOF” (Rhizen Pharmaceuticals AG, priority 2018, published 2022)
